Results: ChEMBL document CHEMBL1201862, “PubChem BioAssay data set” (2004)
Calls of active or inactive are those of the source.

Legend:
[1] = test system: Streptococcus sp. 'group A'; experiment: growth inhibition of control SK(-) GAS strain, dose response, counter-screen for streptokinase expression inhibitor project, luminescence, kanamycin, BacTiterGlo, confirmation (AID 1900); type: functional, organism-based
Streptokinase A = molecular target: T1, Streptokinase A (Streptococcus pyogenes serotype M1, UniProt P10520); experiment: S. pyogenes streptokinase expression inhibitors, potency, dose response, plasminogen activation absorbance, OD405 (AID 1914); type: functional, Streptococcus pyogenes M1 GAS;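 also: secreted streptokinase activity via plasminogen activation per viability signal from cell pellet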
T1 sequence (P10520 whole entry): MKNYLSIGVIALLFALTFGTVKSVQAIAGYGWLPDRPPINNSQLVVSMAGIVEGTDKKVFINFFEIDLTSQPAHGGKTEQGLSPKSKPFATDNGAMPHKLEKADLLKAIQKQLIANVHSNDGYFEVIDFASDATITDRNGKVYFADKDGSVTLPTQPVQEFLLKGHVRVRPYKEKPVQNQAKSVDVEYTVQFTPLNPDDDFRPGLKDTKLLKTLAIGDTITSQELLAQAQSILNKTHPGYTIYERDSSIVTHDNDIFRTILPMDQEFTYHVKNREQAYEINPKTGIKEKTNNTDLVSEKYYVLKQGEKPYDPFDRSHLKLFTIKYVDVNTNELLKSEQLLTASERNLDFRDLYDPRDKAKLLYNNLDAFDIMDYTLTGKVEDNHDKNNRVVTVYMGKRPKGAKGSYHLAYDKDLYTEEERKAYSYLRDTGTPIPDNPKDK

[2] = molecular target: T2, Tyrosine-protein phosphatase non-receptor type 22 (Homo sapiens, UniProt Q9Y2R2); type: functional
T2 sequence (Q9Y2R2 whole entry): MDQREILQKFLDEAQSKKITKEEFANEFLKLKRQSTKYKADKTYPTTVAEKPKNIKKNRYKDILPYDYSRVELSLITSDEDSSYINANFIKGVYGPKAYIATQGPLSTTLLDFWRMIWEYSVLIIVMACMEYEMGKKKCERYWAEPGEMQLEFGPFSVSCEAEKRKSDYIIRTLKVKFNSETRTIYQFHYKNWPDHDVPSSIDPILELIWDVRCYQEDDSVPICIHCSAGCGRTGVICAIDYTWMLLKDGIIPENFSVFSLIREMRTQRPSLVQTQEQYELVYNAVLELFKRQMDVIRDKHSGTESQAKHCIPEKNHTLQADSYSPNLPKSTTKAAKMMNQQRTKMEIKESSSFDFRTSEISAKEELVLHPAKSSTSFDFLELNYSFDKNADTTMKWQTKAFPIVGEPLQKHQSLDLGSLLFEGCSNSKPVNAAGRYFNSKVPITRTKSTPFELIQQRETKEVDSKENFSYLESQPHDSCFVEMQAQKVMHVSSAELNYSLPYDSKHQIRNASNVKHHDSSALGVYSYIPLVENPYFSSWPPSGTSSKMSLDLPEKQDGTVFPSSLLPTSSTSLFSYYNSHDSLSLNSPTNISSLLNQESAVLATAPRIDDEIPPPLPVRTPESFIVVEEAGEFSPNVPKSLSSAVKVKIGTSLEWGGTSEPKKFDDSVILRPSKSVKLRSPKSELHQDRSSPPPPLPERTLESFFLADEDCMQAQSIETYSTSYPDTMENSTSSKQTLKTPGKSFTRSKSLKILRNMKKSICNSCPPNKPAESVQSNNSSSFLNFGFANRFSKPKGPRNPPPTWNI

[3] = molecular target: T2, Tyrosine-protein phosphatase non-receptor type 22; type: functional; remark: listed apart in the source
[4] = molecular target: Small ubiquitin-related modifier 2 (Homo sapiens, UniProt P61956); experiment: inhibitors of SUMO2 protein-protein interaction, dose response, selectivity assay for SUMO1 interaction inhibitor project, biochemical, FRET, human SUMO2, uHTS hits (AID 624384); type: functional; conditions: read-out: IC50_Mean
[5] = molecular target: T3, Long-chain-fatty-acid--AMP ligase FadD28 (Mycobacterium tuberculosis, UniProt P9WQ59); experiment: Fluorescence polarization aasay to screen for inhibitors that compete for the binding of FadD28 to a bisubstrate Measured in Biochemical System Using Plate Reader - 2147-01_Inhibitor_Dose_CherryPick_Activity.; type: functional, Mycobacterium tuberculosis H37Rv
T3 sequence (P9WQ59 whole entry): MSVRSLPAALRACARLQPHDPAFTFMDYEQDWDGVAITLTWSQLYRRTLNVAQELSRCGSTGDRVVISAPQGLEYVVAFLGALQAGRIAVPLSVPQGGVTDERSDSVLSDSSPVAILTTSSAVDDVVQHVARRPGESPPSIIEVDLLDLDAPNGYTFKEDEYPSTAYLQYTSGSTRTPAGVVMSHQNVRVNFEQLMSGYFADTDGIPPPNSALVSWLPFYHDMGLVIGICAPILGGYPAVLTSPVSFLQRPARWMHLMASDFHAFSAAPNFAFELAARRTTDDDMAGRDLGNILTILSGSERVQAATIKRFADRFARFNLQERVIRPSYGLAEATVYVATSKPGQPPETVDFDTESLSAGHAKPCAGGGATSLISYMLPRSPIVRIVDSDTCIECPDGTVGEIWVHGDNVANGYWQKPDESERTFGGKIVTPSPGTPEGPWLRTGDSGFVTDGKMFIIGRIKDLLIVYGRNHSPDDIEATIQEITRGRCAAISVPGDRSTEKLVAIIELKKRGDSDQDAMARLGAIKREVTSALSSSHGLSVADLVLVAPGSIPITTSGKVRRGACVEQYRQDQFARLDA

[6] = molecular target: Small ubiquitin-related modifier 1 (Homo sapiens, UniProt P63165); experiment: inhibitors of SUMO1 partner interactions, dose response, biochemical, FRET (AID 624383); type: functional; conditions: read-out: IC50_Mean
Caspase-6 = molecular target: T4, Caspase-6 (Homo sapiens, UniProt P55212); experiment: human caspase-6 inhibitors, dose response, biochemical, VEID-R110 fluorescence, cherry-pick (AID 720632)
T4 sequence (P55212 whole entry): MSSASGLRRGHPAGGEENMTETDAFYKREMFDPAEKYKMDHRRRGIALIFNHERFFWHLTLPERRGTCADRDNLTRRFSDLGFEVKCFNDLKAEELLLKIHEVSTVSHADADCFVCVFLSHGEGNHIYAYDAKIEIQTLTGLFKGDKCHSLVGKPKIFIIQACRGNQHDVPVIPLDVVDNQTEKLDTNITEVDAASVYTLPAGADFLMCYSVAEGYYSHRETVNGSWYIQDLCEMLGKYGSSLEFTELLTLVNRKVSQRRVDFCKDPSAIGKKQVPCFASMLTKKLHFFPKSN

Sequence of Small ubiquitin-related modifier 2 (P61956 whole entry): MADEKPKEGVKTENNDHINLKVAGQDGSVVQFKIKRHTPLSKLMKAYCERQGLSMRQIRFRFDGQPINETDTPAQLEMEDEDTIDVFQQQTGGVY
Sequence of Small ubiquitin-related modifier 1 (P63165 whole entry): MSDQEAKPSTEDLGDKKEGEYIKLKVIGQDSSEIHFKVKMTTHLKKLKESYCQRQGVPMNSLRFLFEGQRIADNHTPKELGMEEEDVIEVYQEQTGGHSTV

SMILES | EC50 [1] | EC50 (Streptokinase A) | IC50 [2] | IC50 [3] | IC50 [4] | AC50 [5] | IC50 [6] | AC50 (Caspase-6)
CCN1/C(=C/c2ccc3cc(C)ccc3[n+]2CC)Sc2cc(C)c(C)cc21 | 8.22 µM (active) | > 150 µM (not active) |  |  |  |  |  | 
Nc1ccc2nc3c(O)nc(S)nc3nc2c1 |  |  | 76.3 µM (active) | > 79.4 µM (inactive) | 0.584 µM (active) | 46.1 µM (active) | 17.5 µM (active) | 
CSc1ccc(C=NNc2ccc(S(=O)(=O)Nc3ccccc3C(=O)O)cc2[N+](=O)[O-])cc1 |  |  |  |  | 53.1 µM (inactive) |  | 50.8 µM (inactive) | 6.66 µM (active)
O=C(O)COc1ccc(/C=N/NC(=O)c2ccc(-c3csc(Nc4ccc(Cl)cc4)n3)cc2)cc1 |  |  | < 1.24 µM (active) | < 1.24 µM (active) |  |  |  | 
COc1cc(NCCCNC(C)C)c2nccc(C)c2c1 |  |  |  |  |  |  |  | 33.5 µM (active)
CC(/C=C1\SC(=S)N(NS(=O)(=O)c2ccccc2)C1=O)=C\c1ccccc1 | 1.94 µM (active) | 21.4 µM (active) |  |  |  | > 100 µM (inactive) |  | 
